Our source for the cytotoxicity values is ChEMBL document CHEMBL3507680, “University of Dundee, Gates Library screen for HepG2 cell viability”.

This data set in a line: Human HepG2 cell viability assay in 384 well format. Set-up: dose 125 nL, time 70.5 hour; concentration not given beside the values. The data set is classed as toxicity, cell-based. The note with it: HepG2 cells, read-out: Inhibition.
As to `CCCOC1CCCN(Cc2nc(-c3cccs3)oc2C)C1` (stereo not given), the cytotoxicity at 70.5 h was -1.07%.

With `CN(C)CCN(C)C1CCCN(C(=O)c2ccc(Cn3ccnc3)o2)C1` (stereo not given), the cytotoxicity at 70.5 h is -9.94%.

Take `Cc1ccc(N2CCCC(NCc3nnc4n3CCCC4)C2=O)cc1` (stereo not given): the cytotoxicity at 70.5 h is -10.2%.

For the compound `COc1ccc(C2=CCN(C(=O)CN(CC(N)=O)C(C)C)CC2)cc1`, the cytotoxicity at 70.5 h is -4.3%.

Turning to `CC(c1nc(C2CC2)no1)N1CCC(NS(=O)(=O)c2cccs2)CC1` (stereo not given), the cytotoxicity at 70.5 h is -13.4%.

Turning to `O=C(NCCNC(=O)c1scnc1Cl)c1ccccc1Cl`, the cytotoxicity at 70.5 h was -8.93%.

As for `CS(=O)(=O)N1C[C@@H]2COC[C@]2(COCC(=O)N2CCCC2)C1`, the cytotoxicity at 70.5 h is -5.68%.

Take `Cc1noc(C)c1-c1nc(N(C)C)ncc1-c1cnccn1`: the cytotoxicity at 70.5 h is -5.02%.

On to `O=C1CCC2(CCCN(C(=O)Cc3cccnc3)C2)N1` (stereo not given), for which the cytotoxicity at 70.5 h was -6.68%.

As for `CCCN1CCC(CC(=O)NCCc2nc(C)cc(C)n2)CC1`, the cytotoxicity at 70.5 h was -4.92%.

Take `Cc1nn(C)cc1C(C)Nc1ncnc2sccc12` (stereo not given): the cytotoxicity at 70.5 h came to 19.1%.

On to `NC(=O)c1nc(COc2ccc3c(c2)OCO3)no1`, for which the cytotoxicity at 70.5 h is -12.9%.

Regarding `Cc1noc(C)c1CN1CCC(c2nnc(Cn3cccn3)n2C)CC1`, the cytotoxicity at 70.5 h is -6.21%.

Consider `Cn1cc(C(=O)Nc2ccc(CC(=O)NCC(F)(F)F)cc2)nn1`, for which the cytotoxicity at 70.5 h is -6.55%.

Regarding `CC(=O)N1CCOCC(Cc2ccc3c(ccn3C)c2)C1` (stereo not given), the cytotoxicity at 70.5 h is -0.747%.

For `Cc1ccc(C(=O)NCCCC2(C3OCCO3)CCOCC2)cc1C`, the cytotoxicity at 70.5 h was determined as 1.93%.

Turning to `O=C(Cc1cccs1)N1CCCCC1c1ccn2ccnc2n1` (stereo not given), the cytotoxicity at 70.5 h was -5.26%.

For `C1CCCN(C2CCCN(Cc3noc(C4CC4)n3)C2)CC1` (stereo not given), the cytotoxicity at 70.5 h is -1.66%.

As for `COc1ccccc1OC1CCN(c2nc(N)nc3[nH]cnc23)CC1`, the cytotoxicity at 70.5 h was 2.92%.

`Cc1noc(CN(CCc2ccco2)Cc2cccc(C#N)c2)n1`: the cytotoxicity at 70.5 h was 2.9%.

On to `c1ccc(CNc2ncc(CN3CC[C@H]4CC[C@@H](C3)N4)cn2)cc1`, for which the cytotoxicity at 70.5 h was 18.2%.

For the compound `Cc1cc(C)nc(NC2CCc3nc(C)nn3C2)n1` (stereo not given), the cytotoxicity at 70.5 h was -5.94%.

`O=C(c1ccccn1)N1C[C@@H]2OCC(=O)N(CC3CCCCC3)[C@@H]2C1`: the cytotoxicity at 70.5 h is -6.75%.

Turning to `CS(=O)(=O)NCCC1CCCCN1C(=O)NCCc1ccccn1` (stereo not given), the cytotoxicity at 70.5 h is -14.3%.

Turning to `COc1cc2c(cc1CNC(=O)Cc1cc(C)[nH]n1)OC(C)C2` (stereo not given), the cytotoxicity at 70.5 h came to 3.19%.

Consider `CCc1nc(CN2CCc3c(ncn3C3CC3)C2)cs1`, for which the cytotoxicity at 70.5 h was -17%.

With `Cn1ccc(C(=O)NCc2ccc(N3CCOCC3)nc2)cc1=O`, the cytotoxicity at 70.5 h was -12%.

Consider `NCc1cn(-c2ccccc2C(=O)NCc2ccccc2Cl)cn1`, for which the cytotoxicity at 70.5 h is -8.27%.

Regarding `COc1ccc(NC(=O)N(C)Cc2ccc(Br)o2)cn1`, the cytotoxicity at 70.5 h was -6.19%.

Take `Cn1c(CC2CCS(=O)(=O)C2)nnc1SCCOc1ccccc1F` (stereo not given): the cytotoxicity at 70.5 h is -8.16%.

Regarding `COCc1nc(C(=O)N2CCCC2c2ccncc2)cs1` (stereo not given), the cytotoxicity at 70.5 h was -1.03%.

Take `CCOCc1cc(CN2CCn3c(CO)nnc3C2)ccc1OC`: the cytotoxicity at 70.5 h was found to be 1.27%.

Consider `O=C(CN1CCS(=O)(=O)CC1)Nc1ccc(N2CCCC2)nc1`, for which the cytotoxicity at 70.5 h is -5.27%.

`CNC(=O)CN1CCc2c(CNc3nccs3)n[nH]c2C1`: the cytotoxicity at 70.5 h was -10.9%.

As for `CCN(CC)C[C@H]1CN2CC[C@H]1C[C@@H]2CNC(=O)Nc1ccsc1`, the cytotoxicity at 70.5 h was -8.02%.

As for `CC(O)CN1CCC(CN(C)Cc2cc(F)cc3cccnc23)CC1` (stereo not given), the cytotoxicity at 70.5 h is -2.25%.

In the case of `Cc1ncc2c(n1)CN(CC(=O)Nc1ccncc1)CC2`, the cytotoxicity at 70.5 h came to 1.41%.

For the compound `CCc1nsc(N2CCN(C(=O)c3ccnc(N(C)C)c3)CC2)n1`, the cytotoxicity at 70.5 h is -6.45%.

Consider `Cc1noc([C@H]2C[C@@H]3CCN(C(=O)N(C)C)C[C@H]3O2)n1`, for which the cytotoxicity at 70.5 h is -4.62%.

With `CN(C)C(C)(C)CNC(=O)C(C)(C)c1ccccc1F`, the cytotoxicity at 70.5 h was 4.83%.

As to `Cc1csc(C(=O)N2CCCC(c3[nH]ncc3S(C)(=O)=O)C2)c1` (stereo not given), the cytotoxicity at 70.5 h is -0.679%.

Turning to `COc1ccc(F)c(-c2ncccc2C(=O)N2C[C@H]3CC[C@@H]2C3)c1`, the cytotoxicity at 70.5 h is -9.45%.

For the compound `CNC(=O)COc1c(C(C)=O)ccc(Cl)c1Cl`, the cytotoxicity at 70.5 h was -8.98%.

For `CCC(CCNCc1cnc(C2CCC2)s1)N1CCCC1=O` (stereo not given), the cytotoxicity at 70.5 h came out at 26.8%.

Turning to `CN(CC(N)=O)C(=O)c1csc(Br)c1`, the cytotoxicity at 70.5 h is -7.59%.

Take `CC(C)c1nc(CSc2nnc(Cn3cncn3)o2)cs1`: the cytotoxicity at 70.5 h is 0.92%.

With `Cc1c(C2CCCN(C(=O)c3ccn(C)n3)C2)n2c(nc1=O)CCC2` (stereo not given), the cytotoxicity at 70.5 h was -7.35%.

Consider `N#Cc1cccnc1NCCNC(=O)N1CCN2CCCCC2C1` (stereo not given), for which the cytotoxicity at 70.5 h stood at 13.6%.

Turning to `COc1cc(NC(=O)N(C)CC2CC2)ncn1`, the cytotoxicity at 70.5 h was -7.89%.

With `CCN(Cc1ccco1)C(C)c1nc(C(C)C)no1` (stereo not given), the cytotoxicity at 70.5 h is -3.54%.

As for `CNC(=O)C(c1cccc(Cl)c1)C(C)C` (stereo not given), the cytotoxicity at 70.5 h amounted to 17.1%.

For the compound `Cc1ccc(CNC(=O)c2nn(C)c3c2CS(=O)(=O)CC3)o1`, the cytotoxicity at 70.5 h was -2.5%.

Take `O=C(NCC(CO)Cc1cccc(OC(F)(F)F)c1)c1cnccn1` (stereo not given): the cytotoxicity at 70.5 h was 19.2%.

For `CCOCCS(=O)(=O)Cc1ccn(-c2cccc(F)c2)n1`, the cytotoxicity at 70.5 h was -10.1%.

Consider `Cc1nc(C)n(CC2CCCCN2CC(=O)Nc2cc(C)on2)n1` (stereo not given), for which the cytotoxicity at 70.5 h is -13.4%.

Consider `CCCSc1nn(CCCN(C)C)c2nc3sc(C)c(CC)c3c(=O)n12`, for which the cytotoxicity at 70.5 h worked out at 11.5%.

Take `CCS(=O)(=O)N1CCC[C@]2(C(=O)N(C)C)CN(c3ncccn3)C[C@@H]2C1`: the cytotoxicity at 70.5 h is 11.9%.

Regarding `CCN(CC)C(=O)Nc1ccc(C(=O)N(C)C)c(C)c1`, the cytotoxicity at 70.5 h was found to be 2.13%.

Take `COC(=O)c1c(Cl)c(C)nc2onc(C)c12`: the cytotoxicity at 70.5 h was -9.83%.

Turning to `Cc1nc(O)cc(CCNC(=O)c2ccccc2N2CCCC2)n1`, the cytotoxicity at 70.5 h was found to be 27%.

For `CC(C)N1CCc2[nH]nc(C(=O)N3CCCC3C)c2C1` (stereo not given), the cytotoxicity at 70.5 h was -4.03%.

For `OCC(CO)Nc1cccc(C(F)(F)F)n1`, the cytotoxicity at 70.5 h was determined as 1.04%.

Turning to `COC(=O)c1sccc1S(=O)(=O)N1CCC(Oc2cccc(C)n2)CC1`, the cytotoxicity at 70.5 h was -9.62%.

In the case of `Cc1ccc(F)cc1C(=O)N1CCOCC12CCCC2`, the cytotoxicity at 70.5 h is -5.21%.

Consider `COc1cc(NCc2ncc[nH]2)ccc1Br`, for which the cytotoxicity at 70.5 h was -1.95%.

Take `Cc1nc(N2CCCC2)nc2c1CCN(Cc1ccoc1)CC2`: the cytotoxicity at 70.5 h is -6.88%.

As for `Cn1ccc(C(=O)N2CCCC(c3cc(O)n(C)n3)C2)n1` (stereo not given), the cytotoxicity at 70.5 h was determined as 28%.

On to `CN1CCNC(Cc2ccc(-c3ccncc3)cc2)C1=O` (stereo not given), for which the cytotoxicity at 70.5 h is -5.04%.

For the compound `COC[C@@H]1CN(C)C(=O)[C@@H]2CCN(Cc3ccco3)CC[C@H]12`, the cytotoxicity at 70.5 h is -4.9%.

As for `O=C(CCCN1CCCCC1)N1CCN(C(=O)c2ccc[nH]2)CC1`, the cytotoxicity at 70.5 h was 3.29%.

As for `O=C1O[C@@H]2CN(Cc3cc4ccccc4s3)C[C@@H]2N1Cc1ccccn1`, the cytotoxicity at 70.5 h is -6.44%.

As for `COc1cccc(CN2CCCCCC2c2sccc2C)c1O` (stereo not given), the cytotoxicity at 70.5 h was determined as 1.85%.

For `O=C(NC[C@@H]1CCCO1)c1ccc(S(=O)(=O)N[C@@H]2CCNC2)cc1`, the cytotoxicity at 70.5 h was 6%.

As to `Oc1nnc(-c2ccccc2)c2sc(N3CCCCC3)nc12`, the cytotoxicity at 70.5 h amounted to 0.482%.

On to `Cc1ccc(CS(=O)(=O)Cc2nc(N)nc(N(C)C)n2)cc1`, for which the cytotoxicity at 70.5 h came to 0.995%.

Take `Fc1cccnc1N1CCC2(CNCCC2(F)F)C1` (stereo not given): the cytotoxicity at 70.5 h was found to be 12.5%.

With `O=C(N[C@@H]1CN(Cc2ccc3cc[nH]c3c2)C[C@H]1O)c1cnccn1`, the cytotoxicity at 70.5 h was -5.2%.

Take `Cc1cc(C(=O)NCC(=O)N2CCOCC2)nn1C(C)(C)C`: the cytotoxicity at 70.5 h was -17.2%.

Consider `CC(Cn1cc(Cl)cn1)C(=O)Nc1ccc(CN2CCCCCC2)cc1` (stereo not given), for which the cytotoxicity at 70.5 h was 18.9%.

With `CC(C)=CCN1CC2(CCN(C(=O)CCn3ccnc3C)CC2)CC1=O`, the cytotoxicity at 70.5 h stood at 0.368%.

Turning to `COCCN1CCCn2c(nc(Cn3cncn3)cc2=O)C1`, the cytotoxicity at 70.5 h amounted to 19.3%.

In the case of `CSCCCNc1ncnc2cccc(F)c12`, the cytotoxicity at 70.5 h was found to be 23.2%.

Turning to `Nc1cc(C(=O)N2C[C@H]3CC[C@@H]2CN(Cc2cccnc2)C3)ccn1`, the cytotoxicity at 70.5 h was -6.5%.

Take `COc1c(F)cccc1C(=O)NC(C)c1cnn(C)c1` (stereo not given): the cytotoxicity at 70.5 h is -8.49%.

Turning to `Cn1cnc(S(=O)(=O)NCCCN2CCOCC2)c1Cl`, the cytotoxicity at 70.5 h is -14.4%.

As for `N#Cc1ccc(F)c(CN2CCCC2Cn2cccn2)c1` (stereo not given), the cytotoxicity at 70.5 h is -5.17%.

On to `COc1ccnc(N2CCN(CC(=O)N3CCOC(C)C3)CC2)n1` (stereo not given), for which the cytotoxicity at 70.5 h is -8.38%.

`CN(C)c1ccc(C(=O)N2CCCC2c2cnn(C)c2)cn1` (stereo not given): the cytotoxicity at 70.5 h was -2.8%.

For the compound `O=C1NCCCc2[nH]c(Cc3cccc(F)c3)nc21`, the cytotoxicity at 70.5 h was -8.57%.

For `Cc1ccc(-c2cnnc(NCC3(N4CCOCC4)CCCC3)n2)o1`, the cytotoxicity at 70.5 h was -8.14%.

`CN(Cc1nc2ccccc2[nH]1)C(=O)C(C)(C)n1cc(Cl)cn1`: the cytotoxicity at 70.5 h was -12.7%.

On to `COCc1cc(N2C[C@@H](C)[C@](O)(C3CC3)C2)ncn1`, for which the cytotoxicity at 70.5 h came out at 0.518%.

For `O=C(Cc1c[nH]c2ccccc12)N1CCC(Nc2ccccc2)CC1`, the cytotoxicity at 70.5 h was -3.37%.

Consider `Fc1ccc(CN2CCO[C@H]3[C@H](Oc4ccccn4)CC[C@@H]32)cc1`, for which the cytotoxicity at 70.5 h stood at 7.26%.

As for `CC(C)(C)C1SCC(=O)Nc2c1c(O)nn2C1CCCC1` (stereo not given), the cytotoxicity at 70.5 h is -21.9%.

For `CO[C@H]1CCN(C(=O)Cc2ccc(F)cc2)[C@H]1Cc1ccncc1`, the cytotoxicity at 70.5 h is -8.07%.

Turning to `Cc1cc(N2CCCC2c2nccnc2C)ncn1` (stereo not given), the cytotoxicity at 70.5 h was -5.86%.

In the case of `CC(NC1(CNC(=O)Cn2cccn2)CCOCC1)c1ccccc1` (stereo not given), the cytotoxicity at 70.5 h is -6.45%.

For the compound `CCc1noc(CN2CCN(CC(O)c3ccccc3)CC2)n1` (stereo not given), the cytotoxicity at 70.5 h is -3.73%.

As to `NC(=O)c1cnn2c(C3CCN(CCO)CC3)ccnc12`, the cytotoxicity at 70.5 h is -3.75%.
